From ChEMBL document CHEMBL4834465, “Potent SARS-CoV-2 mRNA Cap Methyltransferase Inhibitors by Bioisosteric Replacement of Methionine in SAM Cosubstrate” (ACS Med Chem Lett, 2021)

What was measured:
[1] = target: T1, Glycine N-methyltransferase (Homo sapiens, UniProt Q14749); assay: Inhibition of N-terminal His-tagged human recombinant Glycine-N-methyltransferase (1 to 295 residues) expressed in Escherichia coli using glycine and SAM as substrate incubated for 30 mins by HTRF assay
T1 sequence (Q14749 whole entry): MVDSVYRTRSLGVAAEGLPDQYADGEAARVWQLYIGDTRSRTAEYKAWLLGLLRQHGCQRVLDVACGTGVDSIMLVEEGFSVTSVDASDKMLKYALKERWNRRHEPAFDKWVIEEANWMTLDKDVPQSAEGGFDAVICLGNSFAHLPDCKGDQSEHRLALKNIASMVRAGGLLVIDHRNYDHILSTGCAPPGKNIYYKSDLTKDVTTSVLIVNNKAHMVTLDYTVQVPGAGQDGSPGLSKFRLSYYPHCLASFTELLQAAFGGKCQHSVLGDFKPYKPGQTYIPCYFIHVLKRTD

[2] = mouse, balb/3t3 clone a31, 48 h
HepG2 = details: human, hepg2, 48 h
A549 = details: human, a549, 48 h

| Compound | IC50 ([1]; read-out: IC50) | CC50 [2] | CC50 (HepG2) | CC50 (A549) | IC50 [1] |
| --- | --- | --- | --- | --- | --- |
| Nc1ncnc2c1ncn2[C@@H]1O[C@H](CSCc2cc(O)[nH]n2)[C@@H](O)[C@H]1O | 0.64 µM | > 200 µM | > 100 µM | > 200 µM |  |
| Nc1ncnc2c1ncn2[C@@H]1O[C@H](CSc2cccc(C(=O)O)c2)[C@@H](O)[C@H]1O | 0.15 µM | > 200 µM | > 100 µM | > 200 µM |  |
| Nc1ncnc2c1ncn2[C@@H]1O[C@H](C(=O)N2CCN(CC(=O)O)CC2)[C@@H](O)[C@H]1O | 240 µM |  |  |  |  |
| Nc1ncnc2c1ncn2[C@@H]1O[C@H](C(=O)Nc2cccc(C(=O)O)c2)[C@@H](O)[C@H]1O | 2.2 µM | > 200 µM | > 100 µM | > 200 µM |  |
| Nc1ncnc2c1ncn2[C@@H]1O[C@H](CN(CCCC(=O)O)CCc2ccccc2)[C@@H](O)[C@H]1O | 2.7 µM | > 200 µM | > 100 µM | > 200 µM |  |
| Nc1ncnc2c1ncn2[C@@H]1O[C@H](CSCCc2c[nH]nn2)[C@@H](O)[C@H]1O | 0.39 µM | > 200 µM | > 100 µM | > 200 µM |  |
| Nc1ncnc2c1ncn2[C@@H]1O[C@H](CNCCc2ccccc2)[C@@H](O)[C@H]1O | 207 µM |  |  |  |  |
| Nc1ncnc2c1ncn2[C@@H]1O[C@H](CNCc2cc[nH]n2)[C@@H](O)[C@H]1O |  |  |  |  | Not Active |
| Nc1ncnc2c1ncn2[C@@H]1O[C@H](CSCc2cccc(C(=O)O)c2)[C@@H](O)[C@H]1O | 0.0086 µM | > 200 µM | > 100 µM | > 200 µM |  |
| Nc1ncnc2c1ncn2[C@@H]1O[C@H](CSCc2ccc3ccccc3c2)[C@@H](O)[C@H]1O | 0.26 µM | > 200 µM | > 100 µM | > 200 µM |  |
| Nc1ncnc2c1ncn2[C@@H]1O[C@H](C[C@@H](N)CC[C@H](N)C(=O)O)[C@@H](O)[C@H]1O [SINEFUNGIN] |  | 99.2 µM | > 100 µM | 72.9 µM |  |
